Laboratory results as given in EP0584256B1, “COMPOUNDS AND PHARMACEUTICAL COMPOSITIONS FOR DETECTING AND LOCALIZING TISSUES HAVING NEUROKININE 1 RECEPTORS” (MALLINCKRODT MEDICAL, INC., priority 1991, dated 1999).

Key:
SP-receptors [1] = experiment: Displacement of / binding of [125I]BH-SP, human glioma membranes; settings: Figure 1
Description: (§1) Binding studies in vitro are carried out in a standardized system by studying the displacement of ^125I-Bolton Hunter substance P {[^125I]BH-SP} by the above-synthetized labelled peptides.

[2] = test system: human meningioma membranes; experiment: Binding of [125I]BH-SP to human meningioma membranes; settings: Figure 1
Description: as §1

SP-receptors [3] = experiment: Displacement of / binding of [125I]BH-SP, rat brain cortex membranes; settings: membranes of the cortex of rat brains; Figure 1
Description: as §1

[4] = assay type: in vitro ADME, rat
Excerpt: A liver perfusion model is used as described by Docter et al. in Endocrinology 1990, 126, 451-459. It is a generally accepted fact in this art, that handling of bio-active substances by the isolated perfused rat liver according to this model has a very good predictable value for the appearance of metabolites of the used substance in the circulation of human beings. In short, in this model isolated livers are perfused in a recirculating system with Krebs-Ringer medium supplemented with 1% bovine serum albumin and 10 mM glucose. After 0.5 hr preperfusion, experiments are started by addition of the labelled substance P (5 µCi) to the medium. At regular time points medium samples are taken. Medium samples are analyzed by column chromatography, using Seppak^(R) C-18 columns.
The average results are presented in Figures 4-6, showing the disappearance of the total radioactivity ("tot. act.") and of the peptide-bound radioactivity ("protein") with concomitant appearance of non-peptide bound radioactivity in the circulating medium as a degradation product.
Figures 7-9 show the excretion of the tested labelled peptides into the bile.

- specific binding to membranes (SP-receptors [1]): specifically binds
- specific binding to membranes [2]: not
- specific binding to membranes (SP-receptors [3]): specifically binds
Substance: [^125I]BH-SP: ^125I-Bolton Hunter substance P, known radioligand from in vitro binding studies
- liver metabolic clearance [4]: relatively fast
